# Test results: US9951057B2, “COMT inhibiting methods and compositions” (Lieber Institute for Brain Development, priority 2015, dated 2018)
# Columns and labels:
# [1] = target: T1, aromatic amino acid decarboxylase (AAAD) (Homo sapiens, UniProt P20711); settings: given with L-DOPA; Nutt, Woodward et al. 1985; cited from earlier work
# T1 sequence (P20711 1-480): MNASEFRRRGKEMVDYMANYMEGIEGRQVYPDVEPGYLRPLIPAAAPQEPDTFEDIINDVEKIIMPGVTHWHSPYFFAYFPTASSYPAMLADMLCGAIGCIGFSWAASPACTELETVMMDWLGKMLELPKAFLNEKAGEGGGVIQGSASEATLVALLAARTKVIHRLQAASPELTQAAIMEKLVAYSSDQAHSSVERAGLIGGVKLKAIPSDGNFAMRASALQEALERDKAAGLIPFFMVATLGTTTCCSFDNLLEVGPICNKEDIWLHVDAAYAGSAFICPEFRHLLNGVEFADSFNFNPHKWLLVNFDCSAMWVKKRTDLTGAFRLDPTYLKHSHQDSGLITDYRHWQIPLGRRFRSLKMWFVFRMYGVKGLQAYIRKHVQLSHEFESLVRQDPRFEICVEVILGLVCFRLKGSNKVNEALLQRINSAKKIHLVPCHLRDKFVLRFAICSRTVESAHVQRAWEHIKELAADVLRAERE
# [2] = target: T2, catechol-O-methyltransferase (COMT) (Homo sapiens, UniProt P21964); experiment: COMT inhibition assay (HTRF, production of SAH from SAM); type: biochemical; settings: recombinant human COMT, table does not say whether MB-COMT or S-COMT
# T2 construct: M51A variant) was expressed in HEK 293F cells
# T2 sequence (P21964 52-271 limits assumed): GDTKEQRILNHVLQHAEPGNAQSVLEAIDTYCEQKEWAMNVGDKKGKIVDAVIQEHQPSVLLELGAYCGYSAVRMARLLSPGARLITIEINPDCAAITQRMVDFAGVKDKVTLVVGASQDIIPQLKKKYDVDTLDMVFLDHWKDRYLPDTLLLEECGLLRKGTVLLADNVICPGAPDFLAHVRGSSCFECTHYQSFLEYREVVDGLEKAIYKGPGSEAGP
# Protocol: The ability of compounds to inhibit the activity of catechol-O-methyltransferase (COMT) was determined by a homogenous time-resolved fluorescent (HTRF) assay (Lina et al, 2012; kit from CisBio, Codolet, France). This assay measures the production of S-adenosyl homocysteine (SAH) from the methyl donor S-adenosyl methionine. Recombinant human membrane bound COMT (MB-COMT; M51A variant) was expressed in HEK 293F cells using 293Fectin (Life Technologies, Gent, Belgium) and membranes prepared. The membranes were re-suspended in buffer (20 mM Tris/HCl pH 7; 10 mM glycerol; 2 mM MgCl2; 10 mM NaCl), aliquoted and stored at −80° C. Recombinant human soluble COMT (S-COMT), Val158 variant and a hexa-His tag on the N-terminus, was purified using Ni-NTA chromatography, the His tag removed and stored in buffer as above.
# For the human MB-COMT assay, membranes (62 ng/well) were incubated with SAM (20 μM final, CisBio) and dopamine (1.5 μM final; Sigma H8502, Diegem, Belgium) in the presence or absence of varying concentrations (typically 10 concentrations ranging from 10 μM to 0.1 nM) of compound for 40 min at 37° C. in 384-well microtitre plates (10 μl per well final volume). The reaction was terminated by the addition of acylation buffer and the amount of SAH produced determined according to manufacturer's instructions. Specific inhibition as that inhibited by a high concentration of tolcapone (10 μM; synthesised at UCB) and all experiments were validated using a control curve to tolcapone.
# The human S-COMT assay was performed as above except that 0.15 ng enzyme/well was incubated with SAM (20 μM final) and dopamine (100 μM final) for 15 min at 37° C. and SAH production determined.
# HTRF readings were performed using a Perkin Elmer Envision and results expressed as concentration of SAH produced using a standard curve. Results were analysed using non-linear regression to the 4-parameter logistic equation and pIC50 (−log 10 concentration of drug which inhibits enzyme activity/SAH production by 50%) determined.
# [3] = Nutt and Fellman 1984; cited from earlier work
# [4] = Russ, et al. 1999; cited from earlier work
# [5] = clinical use; Olanow and Watkins 2007; cited from earlier work
SMILES,Activity range (pIC50) [2],other results
C[C@@](Cc1ccc(O)c(O)c1)(NN)C(=O)O [Carbidopa],,reduction of the efficacious L-DOPA dose [1]: 60-80%
"CC(C)CS(=O)(=O)c1ccc(O)c2ncccc12 [Example 1, 5-isobutylsulfonylquinolin-8-ol]",+++ (three plus signs (+++) is associated with a pIC50 of above about 7),
"CCCCCCCCS(=O)(=O)c1ccc(O)c2ncccc12 [Example 2, 5-octylsulfonylquinolin-8-ol]",+++ (three plus signs (+++) is associated with a pIC50 of above about 7),
"O=S(=O)(c1ccc(O)c2ncccc12)C1CCOCC1 [Example 3, 5-tetrahydropyran-4-ylsulfonyquinolin-8-ol]",++ (two plus signs (++) is associated with a pIC50 of from about great than 6 to 7),
"C[C@@H]1CCCN1S(=O)(=O)c1ccc(O)c2ncccc12 [Example 5, 5-[(2R)-2-methylpyrrolidin-1-yl]sulfonylquinolin-8-ol]",+++ (three plus signs (+++) is associated with a pIC50 of above about 7),
C[C@H]1CCCN1S(=O)(=O)c1ccc(O)c2ncccc12 [Example 6],+++ (three plus signs (+++) is associated with a pIC50 of above about 7),
"O=S(=O)(c1cc(Cl)c(O)c2ncccc12)N1CCCC1 [Example 7, 7-chloro-5-pyrrolidin-1-ylsulfonyl-quinolin-8-ol]",++ (two plus signs (++) is associated with a pIC50 of from about great than 6 to 7),
"O=S(=O)(c1cc(Cl)c(O)c2ncccc12)C1CCCC1 [Example 8, 7-chloro-5-cyclopentylsulfonyl-quinolin-8-ol]",++ (two plus signs (++) is associated with a pIC50 of from about great than 6 to 7),
"O=S(=O)(c1ccc(F)cc1)c1cc(Cl)c(O)c2ncccc12 [Example 9, 7-chloro-5-(4-fluorophenyl)sulfonyl-quinolin-8-ol]",++ (two plus signs (++) is associated with a pIC50 of from about great than 6 to 7),
"O=S(=O)(c1cc(F)c(O)c2ncccc12)C1CCCC1 [Example 10, 7-fluoro-5-cyclopentylsulfonyl-quinolin-8-ol]",+++ (three plus signs (+++) is associated with a pIC50 of above about 7),
"CC(C)CS(=O)(=O)c1cc(Cl)c(O)c2ncccc12 [Example 11, 7-chloro-5-isobutylsulfonyl-quinolin-8-ol]",+ (a single plus (+) is associated with a pIC50 of from about 4.5 to 6),
"CC(C)S(=O)(=O)c1cc(Cl)c(O)c2ncccc12 [Example 12, 7-chloro-5-isopropylsulfonyl-quinolin-8-ol]",++ (two plus signs (++) is associated with a pIC50 of from about great than 6 to 7),
"O=S(=O)(c1cc(Cl)c(O)c2ncccc12)C1CCCCC1 [Example 13, 7-chloro-5-cyclohexylsulfonyl-quinolin-8-ol]",+++ (three plus signs (+++) is associated with a pIC50 of above about 7),
"O=S(=O)(c1ccc(F)cc1)c1cc(F)c(O)c2ncccc12 [Example 14, 7-fluoro-5-(4-fluorophenyl)sulfonyl-quinolin-8-ol]",++ (two plus signs (++) is associated with a pIC50 of from about great than 6 to 7),
"O=S(=O)(c1ccc(C(F)(F)F)cc1)c1cc(F)c(O)c2ncccc12 [Example 15, 7-fluoro-5-[4-(trifluoromethyl)phenyl]sulfonyl-quinolin-8-ol]",++ (two plus signs (++) is associated with a pIC50 of from about great than 6 to 7),
"O=S(=O)(c1ccccn1)c1cc(F)c(O)c2ncccc12 [Example 16, 7-fluoro-5-(2-pyridylsulfonyl)quinolin-8-ol]",++ (two plus signs (++) is associated with a pIC50 of from about great than 6 to 7),

SMILES,Activity range (pIC50) [2],other results
"Cc1ccc(S(=O)(=O)c2cc(Cl)c(O)c3ncccc23)cc1C [Example 17, 7-chloro-5-(3,4-dimethylphenyl)sulfonyl-quinolin-8-ol]",++ (two plus signs (++) is associated with a pIC50 of from about great than 6 to 7),
"O=S(=O)(c1ccc(C(F)(F)F)cc1)c1cc(Cl)c(O)c2ncccc12 [Example 18, 7-chloro-5-[4-(trifluoromethyl)phenyl]sulfonyl-quinolin-8-ol]",++ (two plus signs (++) is associated with a pIC50 of from about great than 6 to 7),
"O=S(=O)(c1ccccn1)c1cc(Cl)c(O)c2ncccc12 [Example 19, 7-chloro-5-(2-pyridylsulfonyl)quinolin-8-ol]",++ (two plus signs (++) is associated with a pIC50 of from about great than 6 to 7),
"Cc1ccc(S(=O)(=O)c2cc(Cl)c(O)c3ncccc23)c(C)c1 [Example 20, 7-chloro-5-(2,4-dimethylphenyl)sulfonyl-quinolin-8-ol]",+++ (three plus signs (+++) is associated with a pIC50 of above about 7),
"O=S(=O)(c1cc(Cl)cc(Cl)c1)c1cc(Cl)c(O)c2ncccc12 [Example 21, 7-chloro-5-(3,5-dichlorophenyl)sulfonyl-quinolin-8-ol]",+ (a single plus (+) is associated with a pIC50 of from about 4.5 to 6),
"O=S(=O)(c1nccs1)c1cc(Cl)c(O)c2ncccc12 [Example 22, 7-chloro-5-thiazol-2-ylsulfonyl-quinolin-8-ol]",++ (two plus signs (++) is associated with a pIC50 of from about great than 6 to 7),
"Cc1cccc(S(=O)(=O)c2cc(Cl)c(O)c3ncccc23)c1 [Example 23, 7-chloro-5-(m-tolylsulfonyl)quinolin-8-ol]",++ (two plus signs (++) is associated with a pIC50 of from about great than 6 to 7),
"O=S(=O)(c1ccc(Cl)c(Cl)c1)c1cc(Cl)c(O)c2ncccc12 [Example 24, 7-chloro-5-(3,4-dichlorophenyl)sulfonyl-quinolin-8-ol]",++ (two plus signs (++) is associated with a pIC50 of from about great than 6 to 7),
"O=S(=O)(c1cccc(-c2ccccc2)c1)c1cc(Cl)c(O)c2ncccc12 [Example 25, 7-chloro-5-(3-phenylphenyl)sulfonyl-quinolin-8-ol]",++ (two plus signs (++) is associated with a pIC50 of from about great than 6 to 7),
"CC(C)(C)c1ccc(S(=O)(=O)c2cc(Cl)c(O)c3ncccc23)cc1 [Example 26, 5-(4-tert-butylphenyl)sulfonyl-7-chloro-quinolin-8-ol]",+ (a single plus (+) is associated with a pIC50 of from about 4.5 to 6),
"O=S(=O)(c1cccnc1)c1cc(Cl)c(O)c2ncccc12 [Example 27, 7-chloro-5-(3-pyridylsulfonyl)quinolin-8-ol]",+ (a single plus (+) is associated with a pIC50 of from about 4.5 to 6),
"O=S(=O)(c1ccc[n+]([O-])c1)c1cc(Cl)c(O)c2ncccc12 [Example 28, 7-chloro-5-(1-oxidopyridin-1-ium-3-yl)sulfonyl-quinolin-8-ol]",+ (a single plus (+) is associated with a pIC50 of from about 4.5 to 6),
"N[C@@H](Cc1ccc(O)c(O)c1)C(=O)O [L-DOPA, L-dihydroxyphenylalanine]",,percentage of exogenously administered L-DOPA that reaches the brain [3]: ~1%
CCN(CC)C(=O)/C(C#N)=C/c1cc(O)c(O)c([N+](=O)[O-])c1 [entacapone],,brain penetration / levels in the brain [4]: negligible brain penetration
Cc1ccc(C(=O)c2cc(O)c(O)c([N+](=O)[O-])c2)cc1 [tolcapone],,"brain penetration / levels in the brain [4]: low but measurable levels in the brain; liver injury [5]: associated with serious liver injury, including three deaths"
